Legend:
EC (Escherichia coli) = assay: MIC determination; assay type: cell-based; conditions: 20 μM Apo-Transferrin, 37° C., 18 hours; for MIC: Escherichia coli, first EC column of Table 3-1, CAMH broth, read-out: Minimum Inhibitory Concentrations, EC; for Minimum Inhibitory Concentrations, EC: Table 3-1, CAMH broth
How it was run: (§1)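 Broth microdilution in CAMH + 20 μM apo-transferrin; inoculum 0.5 McFarland, used within 30 min. Compound 64→0.125 μg/mL, twofold steps. 37 °C, 18 h. MIC = lowest clear-well concentration.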

[1] = test system: KOXY (Klebsiella oxytoca); assay: MIC determination; assay type: cell-based; conditions: Klebsiella oxytoca, CAMH broth, 20 μM Apo-Transferrin, 37° C., 18 hours, read-out: Minimum Inhibitory Concentrations, KOXY
How it was run: as §1

[2] = test system: KP (Klebsiella pneumoniae); assay: MIC determination; assay type: cell-based; conditions: 20 μM Apo-Transferrin, 37° C., 18 hours
How it was run: as §1

[3] = test system: A. baumannii (JMI OXA-58); assay: MIC determination; assay type: cell-based, Acinetobacter baumannii; conditions: Acinetobacter baumannii, class D carbapenemase producer, CAMH broth, 20 μM Apo-Transferrin, 37° C., 18 hours, read-out: Minimum Inhibitory Concentrations, A. baumannii (JMI OXA-58)
Protocol: (§2) Sterile technique was used throughout these experiments. Suspensions of organisms were removed from storage (−80° C.) and partially thawed. Partially thawed organisms (1 μL) were inoculated into 3 mL sterile LB Broth in a sterile culture tube and capped, then cultured at 37° C. with shaking for 4-5 hours until the optical density at 600 nm (OD600) was greater than 0.1 on a single beam spectrophotometer.
(§3) The concentration of organisms was adjusted to 0.08-0.1 OD600 (0.5 McFarland units) by dilution with sterile cation-adjusted Meuller-Hinton (CAMH) broth. The suspensions were used within 30 minutes of preparation.
(§4) A stock solution was made of each test compound by measuring 6.4 mg of the compound on an analytical balance and dissolving it in DMSO (1 mL) to get a transparent solution. The solutions were stored at −20° C. and thawed prior to use.
(§5) Sterile CAMH broth (200 μL) containing 20 μM Apo-Transferrin was pipetted into the first row of 8 columns of a sterile, round-bottomed, transparent, 96-well microplate using an 8-channel pipette equipped with sterile tips. One hundred μL was pipetted into the wells of the remaining 11 rows.
(§6) With an 8-channel pipette equipped with sterile tips, 100 μL of the first row solution was transferred to the second row and mixed. The process was repeated for the second to third rows and continued through row 11. One hundred μL from row 11 was removed and discarded so that all 12 rows contained 100 μL. Row 12 contained no compound and rows 1-11 contained 64, 32, 16, 8, 4, 2, 1, 0.5, 0.25, 0.125, […] of a given compound.
(§7) Inoculant suspensions (0.5 μL) were added to the 12 wells of each column. The plates were then covered and incubated at 37° C. overnight for 18 hours.
(§8) For each organism the MIC was determined by identifying the transparent well with the lowest test compound concentration.

A. baumannii = assay: MIC determination; assay type: cell-based, Acinetobacter baumannii; conditions: for MIC: Acinetobacter baumannii, A. baumannii, CAMH broth, 20 μM Apo-Transferrin, 37° C., 18 hours, read-out: Minimum Inhibitory Concentrations, A. baumannii
Protocol: as §2, §3, §4, §5, §6, §7, §8

EC (RR -1) = assay: MIC determination; assay type: cell-based, Escherichia coli; conditions: CAMH broth, 20 μM Apo-Transferrin, 37° C., 18 hours
Protocol: as §2, §3, §4, §5, §6, §7, §8

EC (RR -2) = assay: MIC determination; assay type: cell-based, Escherichia coli; conditions: CAMH broth, 20 μM Apo-Transferrin, 37° C., 18 hours
Protocol: as §2, §3, §4, §5, §6, §7, §8

EC (URMC-1) = assay: MIC determination; assay type: cell-based, Escherichia coli; conditions: Escherichia coli, CAMH broth, 20 μM Apo-Transferrin, 37° C., 18 hours, read-out: Minimum Inhibitory Concentrations, EC (URMC-1)
Protocol: as §2, §3, §4, §5, §6, §7, §8

EC (URMC-2) = assay: MIC determination; assay type: cell-based, Escherichia coli; conditions: Escherichia coli, CAMH broth, 20 μM Apo-Transferrin, 37° C., 18 hours, read-out: Minimum Inhibitory Concentrations, EC (URMC-2)
Protocol: as §2, §3, §4, §5, §6, §7, §8

EC (URMC-3) = assay: MIC determination; assay type: cell-based, Escherichia coli; conditions: Escherichia coli, CAMH broth, 20 μM Apo-Transferrin, 37° C., 18 hours, read-out: Minimum Inhibitory Concentrations, EC (URMC-3)
Protocol: as §2, §3, §4, §5, §6, §7, §8

EC(ATCC NDM-1) = assay: MIC determination; assay type: cell-based, Escherichia coli; conditions: Escherichia coli, CAMH broth, 20 μM Apo-Transferrin, 37° C., 18 hours, read-out: Minimum Inhibitory Concentrations, EC(ATCC NDM-1)
Protocol: as §2, §3, §4, §5, §6, §7, §8

EC(JMI OXA-48) = assay: MIC determination; assay type: cell-based, Escherichia coli; conditions: Escherichia coli, CAMH broth, 20 μM Apo-Transferrin, 37° C., 18 hours, read-out: Minimum Inhibitory Concentrations, EC(JMI OXA-48)
Protocol: as §2, §3, §4, §5, §6, §7, §8

EC(KB1 CTX-M-15) = assay: MIC determination; assay type: cell-based, Escherichia coli; conditions: Escherichia coli, CAMH broth, 20 μM Apo-Transferrin, 37° C., 18 hours, read-out: Minimum Inhibitory Concentrations, EC(KB1 CTX-M-15)
Protocol: as §2, §3, §4, §5, §6, §7, §8

EC(KB2 CTX-M-15) = assay: MIC determination; assay type: cell-based, Escherichia coli; conditions: Escherichia coli, CAMH broth, 20 μM Apo-Transferrin, 37° C., 18 hours, read-out: Minimum Inhibitory Concentrations, EC(KB2 CTX-M-15)
Protocol: as §2, §3, §4, §5, §6, §7, §8

EA (URMC -3) = assay: MIC determination; assay type: cell-based; conditions: CAMH broth, 20 μM Apo-Transferrin, 37° C., 18 hours
Protocol: as §2, §3, §4, §5
To each well of the first row was pipetted 2.0 μL of the 6.4 mg/mL stock test compound stock solution to give 1:100 dilutions and a final concentration of 64 μg/mL and mixed.
as §6, §7, §8

CF (RR -1) = assay: MIC determination; assay type: cell-based, Citrobacter freundii; conditions: CAMH broth, 20 μM Apo-Transferrin, 37° C., 18 hours
Protocol: as §2, §3, §4, §5, §6, §7, §8

ENC (ATCC NDM-1) = assay: MIC determination; assay type: cell-based, Enterobacter cloacae; conditions: CAMH broth, 20 μM Apo-Transferrin, 37° C., 18 hours
Protocol: as §2, §3, §4, §5, §6, §7, §8

[4] = test system: Isogenic E. coli J58 strain carrying TEM-26; assay: MIC determination, isogenic E. coli strains; assay type: cell-based; conditions: Escherichia coli, 18 h, read-out: Mimimum Inhibitory Concentrations, TEM-26
How it was run: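 E. coli J53 carried a pBC-SK(+) plasmid expressing TEM-26 β-lactamase. Compounds were serially halved from […] in CAMH broth containing 20 μM apo-transferrin, inoculated from a 0.5 McFarland culture and held overnight (18 h, 37° C); MIC read as the lowest concentration without visible growth.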

[5] = test system: Isogenic E. coli J58 strain carrying CTX-M-14; assay: MIC determination, isogenic E. coli strains; assay type: cell-based; conditions: Escherichia coli, 18 h, read-out: Mimimum Inhibitory Concentrations, CTX-M-14
How it was run: (§9)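 Isogenic E. coli J53 carrying plasmid-encoded CTX-M-14 or CTX-M-15 (ampicillin-selected), standardized to 0.08-0.1 OD600, incubated overnight (18 h, 37° C.) in CAMH broth plus 20 μM apo-transferrin over 2-fold compound dilutions starting at 64 μg/mL. Lowest concentration with no visible growth recorded as MIC.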

[6] = test system: Isogenic E. coli J58 strain carrying CTX-M-15; assay: MIC determination, isogenic E. coli strains; assay type: cell-based; conditions: Escherichia coli, 18 h, read-out: Mimimum Inhibitory Concentrations, CTX-M-15
How it was run: as §9

[7] = test system: Isogenic E. coli J58 strain carrying VIM-2; assay: MIC determination, isogenic E. coli strains; assay type: cell-based; conditions: for MIC: Escherichia coli, 18 h, read-out: Mimimum Inhibitory Concentrations, VIM-2
How it was run: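 Broth microdilution in cation-adjusted Mueller-Hinton with 20 μM apo-transferrin, compound serially halved from 64 μg/mL, read by eye after 18 h at 37 °C as lowest clear well. Inoculum: VIM-2-expressing E. coli J53 (pBC-SK(+) plasmid), adjusted to 0.5 McFarland.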

[8] = test system: Isogenic E. coli J58 strain carrying DHA-1; assay: MIC determination, isogenic E. coli strains; assay type: cell-based; conditions: Escherichia coli, 18 h, read-out: Mimimum Inhibitory Concentrations, DHA-1
How it was run: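 MIC read as the lowest compound level giving a transparent well after 18 h at 37° C. Strains: parent E. coli J53 and isogenic transformants expressing plasmid-borne (pBC-SK(+)) beta-lactamases such as DHA-1; inoculum 0.5 McFarland; CAMH broth plus 20 μM apo-transferrin; compound 64 μg/mL downward, 2-fold dilutions.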

[9] = first KP column of Table 3-1, CAMH broth
[10] = second KP column of Table 3-1, CAMH broth

Row | Compound | MIC (EC (Escherichia coli)) | Minimum Inhibitory Concentrations, EC (EC (Escherichia coli)) | MIC [1] | Minimum Inhibitory Concentrations, KP [2, 9] | Minimum Inhibitory Concentrations, KP [2, 10] | MIC [3] | MIC (A. baumannii) | Mimimum Inhibitory Concentrations, EC (RR -1) (EC (RR -1)) | Mimimum Inhibitory Concentrations, EC (RR -2) (EC (RR -2)) | MIC (EC (URMC-1)) | MIC (EC (URMC-2)) | MIC (EC (URMC-3)) | MIC (EC(ATCC NDM-1)) | MIC (EC(JMI OXA-48)) | MIC (EC(KB1 CTX-M-15)) | MIC (EC(KB2 CTX-M-15)) | Mimimum Inhibitory Concentrations, EA (URMC -3) (EA (URMC -3)) | Mimimum Inhibitory Concentrations, CF (RR -1) (CF (RR -1)) | Mimimum Inhibitory Concentrations, ENC (ATCC NDM-1) (ENC (ATCC NDM-1)) | MIC [5] | also measured
1 | CC(C)(O/N=C(\C(=O)N[C@@H]1C(=O)N2C(C(=O)O)=C(C=Cc3ccc(C[N+]4(C)CCc5cc(O)c(O)cc5C4)cc3)CS[C@H]12)c1csc(N)n1)C(=O)O (mixture of isomers) [Compound 407, 2-(4-((E/Z)-2-((6R,7R)-7-((Z)-2-(2-aminothiazol-4-yl)-2-(((2-carboxypropan-2-yl)oxy)imino)acetamido)-2-carboxy-8-oxo-5-thia-1-azabicyclo[4.2.0]oct-2-en-3 yl)vinyl)benzyl)-6,7-dihydroxy-2-methyl-1,2,3,4-tetrahydroisoquinolin-2-ium] | 0.25 µg/mL | 0.25 microgram/mL | 1 µg/mL | 0.25 microgram/mL | 0.25 microgram/mL | 16 µg/mL | 2 µg/mL | 0.13 microgram/mL | 0.13 microgram/mL | 0.25 µg/mL | 0.25 µg/mL | ≤ 0.06 µg/mL | > 64 µg/mL | 16 µg/mL | > 64 µg/mL | > 64 µg/mL | 2 microgram/mL | 0.13 microgram/mL | >64 microgram/mL | 1 µg/mL | MIC [4]: 1 µg/mL; MIC [6]: 64 µg/mL; MIC [7]: 0.5 µg/mL
2 | CC(C)(O/N=C(\C(=O)N[C@@H]1C(=O)N2C(C(=O)O)=C(C=Cc3ccc(C[N+]4(C)Cc5c(Cl)c(O)c(O)c(Cl)c5C4)cc3)CS[C@H]12)c1csc(N)n1)C(=O)O (mixture of isomers) [Compound 431, 2-(4-((E/Z)-2-((6R,7R)-7-((Z)-2-(2-aminothiazol-4-yl)-2-(((2-carboxypropan-2-yl)oxy)imino)acetamido)-2-carboxy-8-oxo-5-thia-1-azabicyclo[4.2.0]oct-2-en-3-yl)vinyl)benzyl)-4,7-dichloro-5,6-dihydroxy-2-methylisoindolin-2-ium] | 0.5 µg/mL | 0.5 microgram/mL | 0.13 µg/mL | 0.13 microgram/mL | 0.13 microgram/mL | > 64 µg/mL | 1 µg/mL | ≤0.06 microgram/mL | ≤0.06 microgram/mL | 0.25 µg/mL | ≤ 0.06 µg/mL | 0.25 µg/mL | > 64 µg/mL | 0.5 µg/mL | 2 µg/mL | 2 µg/mL | 1 microgram/mL | 1 microgram/mL | >64 microgram/mL | 0.13 µg/mL | MICs for an Acinetobacter baumannii strain, in words (A. baumannii; review of Table 2): low microgram/mL MICs; MIC [8]: 1 µg/mL; MIC [6]: 0.13 µg/mL; MIC [7]: ≤ 0.06 µg/mL; MICs for an E. coli strain carrying the gene for carbapenemase VIM-1, in words ([7]; review of Tables 4-1 and 4-2): low microgram/mL MICs
